# In patent US7063946B2, “Methods, reagents, kits and apparatus for protein function analysis” (Meso Scale Technologies, LLC., priority 2001, dated 2006):
# How the values were obtained:
# BTK = molecular target: T1, BTK (Homo sapiens, UniProt Q06187); assay: Kinase inhibitor profiling, autophosphorylation; type: biochemical
# T1 construct: specificity data for proteins generated from a library of eighteen full-length clones; host or cells: rabbit reticulocyte lysate, TnT coupled in vitro transcription/translation (cell-free)
# T1 sequence (Q06187 whole entry): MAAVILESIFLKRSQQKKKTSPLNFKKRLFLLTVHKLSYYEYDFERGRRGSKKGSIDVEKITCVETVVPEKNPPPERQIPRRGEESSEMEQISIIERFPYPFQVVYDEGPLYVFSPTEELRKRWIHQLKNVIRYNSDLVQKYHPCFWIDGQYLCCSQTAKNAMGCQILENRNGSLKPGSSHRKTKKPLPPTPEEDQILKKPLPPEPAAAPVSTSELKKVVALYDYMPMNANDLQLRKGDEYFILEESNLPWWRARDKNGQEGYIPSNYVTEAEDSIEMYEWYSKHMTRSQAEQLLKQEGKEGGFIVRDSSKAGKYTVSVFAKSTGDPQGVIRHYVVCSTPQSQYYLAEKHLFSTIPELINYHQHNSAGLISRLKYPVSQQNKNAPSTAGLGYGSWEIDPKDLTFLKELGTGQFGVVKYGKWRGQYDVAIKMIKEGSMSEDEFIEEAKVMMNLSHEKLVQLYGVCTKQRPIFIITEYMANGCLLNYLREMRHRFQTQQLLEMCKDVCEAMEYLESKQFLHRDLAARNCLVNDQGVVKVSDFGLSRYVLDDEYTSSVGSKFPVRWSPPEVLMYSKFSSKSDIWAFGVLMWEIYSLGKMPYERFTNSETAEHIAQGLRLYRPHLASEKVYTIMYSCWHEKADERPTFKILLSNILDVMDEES
# Kdr [1] = molecular target: T2, Kdr (Mus musculus, UniProt P35918); assay: Kinase inhibitor profiling, autophosphorylation; type: biochemical
# T2 construct: specificity data for proteins generated from a library of eighteen full-length clones; biotin on random lysines (biotin-Lys-tRNA); host or cells: rabbit reticulocyte lysate, coupled transcription/translation (TnT, Promega)
# T2 sequence (P35918 20-1345): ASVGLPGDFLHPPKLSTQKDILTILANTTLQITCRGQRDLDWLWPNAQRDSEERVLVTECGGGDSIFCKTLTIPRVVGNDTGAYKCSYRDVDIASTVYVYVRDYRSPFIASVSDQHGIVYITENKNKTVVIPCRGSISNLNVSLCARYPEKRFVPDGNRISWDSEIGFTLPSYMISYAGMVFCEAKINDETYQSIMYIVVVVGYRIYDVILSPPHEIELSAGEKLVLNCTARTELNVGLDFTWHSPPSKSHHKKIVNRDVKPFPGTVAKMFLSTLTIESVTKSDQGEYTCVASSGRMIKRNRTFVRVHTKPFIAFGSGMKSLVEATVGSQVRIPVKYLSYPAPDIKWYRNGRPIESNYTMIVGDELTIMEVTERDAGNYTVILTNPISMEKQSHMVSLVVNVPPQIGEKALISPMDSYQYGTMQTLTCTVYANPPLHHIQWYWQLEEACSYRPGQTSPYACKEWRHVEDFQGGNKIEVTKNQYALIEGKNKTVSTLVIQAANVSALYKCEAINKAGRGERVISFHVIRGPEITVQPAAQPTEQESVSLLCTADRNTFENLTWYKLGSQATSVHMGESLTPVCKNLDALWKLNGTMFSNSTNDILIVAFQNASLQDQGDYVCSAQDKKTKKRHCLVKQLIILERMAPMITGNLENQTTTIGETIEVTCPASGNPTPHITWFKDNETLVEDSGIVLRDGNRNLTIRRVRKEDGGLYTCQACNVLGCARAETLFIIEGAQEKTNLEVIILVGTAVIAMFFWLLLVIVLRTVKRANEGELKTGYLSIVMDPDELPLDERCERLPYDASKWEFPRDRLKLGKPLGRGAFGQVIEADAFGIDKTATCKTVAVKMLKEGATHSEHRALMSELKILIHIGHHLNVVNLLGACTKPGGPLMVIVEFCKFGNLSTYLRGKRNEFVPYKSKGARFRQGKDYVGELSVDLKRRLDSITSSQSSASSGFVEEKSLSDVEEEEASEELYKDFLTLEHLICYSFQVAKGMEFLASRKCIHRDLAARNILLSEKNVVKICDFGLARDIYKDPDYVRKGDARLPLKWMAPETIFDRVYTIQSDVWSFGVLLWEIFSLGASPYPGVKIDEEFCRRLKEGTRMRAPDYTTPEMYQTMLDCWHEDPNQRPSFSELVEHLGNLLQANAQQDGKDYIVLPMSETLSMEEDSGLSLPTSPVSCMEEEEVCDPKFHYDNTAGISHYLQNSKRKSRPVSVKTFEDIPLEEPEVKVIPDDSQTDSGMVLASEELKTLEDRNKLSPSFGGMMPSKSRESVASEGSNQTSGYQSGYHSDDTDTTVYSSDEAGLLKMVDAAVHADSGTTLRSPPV
# Procedure: Proteins were produced from DNA plasmids of Mock Luciferase, Promega, tyrosine kinase clone Spleen Tyrosine kinase (SYK, IMAGE ID# 3870426) and Eph receptor-A7 (EphA7, IMAGE ID# 3991628) (Incyte Genomics, CA) and immobilized on streptavidin or avidin coated NPT-IPR plates as described in the Example 7. To promote autophosphorylation in these immobilized and purified proteins, Mn++ ions were added in a 50 μl reaction containing 5 mM MgCl2, 5 mM MnCl2, 100 μM ATP, 25 mM Tris-HCl buffer pH 7.4, 0.05 mM Na3VO4, 0.004% TritonX-100, 2 mM DTT and EDTA-free protease inhibitor (Roche Molecular Biochemicals). This mixture was incubated with shaking at room temperature overnight to allow autophosphorylation. Following this incubation, wells were washed 2 times with TT-buffer and 2 times with water. Following this step, 50 ng Sulfo-TAG labeled anti-phosphotyrosine in buffer containing 25 mM Tris-HCl buffer pH 7.4, 5 mM MgCl2, 0.05 mM Na3VO4, 0.004% TritonX-100, 2 mM DTT and 0.05% IgG in a final volume of 50 μl was added followed by incubation at room temperature for 45 min. The unbound reagents were removed by one time washing with water, and the TAG label was detected in presence of 150 μl IPR assay buffer (0.4 mM Gly—Gly buffer, pH 7.8, 1 mM EDTA, 0.1 M TPA). The ECL signals were measured using an imaging plate reader.
# (§1) The unbound components of the translation reaction (including any endogenous kinases) were removed by 3 washes with TT-buffer (25 mM Tris-HCl buffer pH 7.4 and 0.004% Triton), two five minutes washes with high-salt wash buffer (25 mM Tris-HCl buffer pH 7.4, 0.004% Triton, 1M NaCl and 5 mM DTT) and 3 washes with TT-buffer. […] The mixture was incubated at room temperature for 10 mm before starting the kinase reaction by adding 25 μl of 200 μM ATP in buffer A. This mixture was incubated with intermittent shaking at room temperature for 2 hours to overnight to allow (a) phosphorylation of the pEY substrate and (b) autophosphorylation of the immobilized kinases. Autophosphorylation and phosphorylation of the pEY was measured as described in Examples 7 and 8.
# (§2) The ECL signal in control wells produced by tyrosine kinases was compared to the wells containing inhibitor compounds.
# [2] = tested on: tyrosine kinases reported to be the target of each inhibitor; settings: read-out: reported IC50 concentration (1× concentration); for the kinase reported to be the target of the inhibitor; cited from earlier work
# Kdr [3] = molecular target: T2, Kdr; assay: Kinase inhibitor profiling, pEY phosphorylation; type: biochemical
# Procedure: Proteins were produced in an in vitro transcription and translation reaction. […] The unbound components of the reaction containing endogenous kinases were removed by three washes with TT-buffer (25 mM Tris-HCl buffer pH 7.4 and 0.004% Triton), two five minutes washings with high-salt wash buffer (25 mM Tris-HCl buffer pH 7.4, 0.004% Triton, 1M NaCl and 5 mM DTT) and 3 more washes with TT-buffer. To these immobilized and purified proteins a tyrosine kinase substrate, 5 nM pEY (poly Glu-Tyr, Sigma, MO), was added in a 50 μl reaction solution containing 5 mM MgCl2, 5 mM MnCl2, 100 μM ATP, 25 mM Tris-HCl buffer pH 7.4, 0.05 mM Na3VO4, 0.004% TritonX-100, 2 mM DTT and EDTA-free protease inhibitor (Roche Molecular Biochemicals). This mixture was incubated with shaking at room temperature overnight to allow phosphorylation of the pEY substrate by the immobilized kinases. Following this incubation, 45 μl of this mixture was transferred to a streptavidin or avidin-coated NPT IPR plate coated with biotinylated anti-phosphotyrosine antibody (PY20, Zymed labs, CA) followed by incubation for 30 minutes at room temperature to allow the binding of the phosphorylated pEY substrate to the PY20 coated NPT plate. Following this binding step, 50 ng Sulfo-TAG labeled anti-phosphotyrosine in buffer containing 25 mM Tris-HCl buffer pH 7.4, 5 mM MgCl2, 0.05 mM Na3VO4, 0.004% TritonX-100, 2 mM DTT and 0.05% IgG was added followed by incubation at room temperature for 30 mm. The unbound reagents were removed by one time washing with water, and the TAG label was detected in presence of 150 μl IPR assay buffer (0.4 mM Gly-Gly buffer, pH 7.8, 1 mM EDTA, 0.1 M TPA). The ECL signals were measured using an imaging plate reader.
# as §1, §2
Molecule,"Inhibition specificity towards Autophosphorylation at 10X IC50, BTK (BTK)","Inhibition specificity towards Autophosphorylation at 10X IC50, Kdr (Kdr [1])",IC50 [2] [µM],"Inhibition specificity towards pEY phosphorylation at 10X IC50, Kdr (Kdr [3])"
COC(=O)c1ccc(NCc2cc(O)ccc2O)cc1 [AG-957],L (low inhibition (“L”=between 50–75% of the activity remaining)),L (low inhibition (“L”=between 50–75% of the activity remaining)),0.75,
CC(C)(C)c1cc(C=C(C#N)C#N)cc(Br)c1O [AG-1024],L (low inhibition (“L”=between 50–75% of the activity remaining)),,18,M (medium inhibition (“M”=between 25 to 50% of the activity remaining))
Cc1cc2ncc(-c3ccc(O)c(O)c3)nc2cc1C [AG-1433],H (high inhibition (“H”=less than 25% of the activity remaining)),H (high inhibition (“H”=less than 25% of the activity remaining)),5,H (high inhibition (“H”=less than 25% of the activity remaining))
COc1c(C=O)c(O)cc2c1C(=O)c1ccccc1C2=O [Damnacanthal],H (high inhibition (“H”=less than 25% of the activity remaining)),H (high inhibition (“H”=less than 25% of the activity remaining)),0.62,H (high inhibition (“H”=less than 25% of the activity remaining))
Cc1ccc(-c2nn(C(C)(C)C)c3ncnc(N)c23)cc1 [PP1],,L (low inhibition (“L”=between 50–75% of the activity remaining)),0.6,M (medium inhibition (“M”=between 25 to 50% of the activity remaining))
COc1cc2ncnc(Nc3ccc(Cl)cc3F)c2cc1OC [VEGFR inhibitor],L (low inhibition (“L”=between 50–75% of the activity remaining)),M (medium inhibition (“M”=between 25 to 50% of the activity remaining)),2,H (high inhibition (“H”=less than 25% of the activity remaining))
COc1cc2ncnc(Nc3ccc(O)cc3)c2cc1OC [WHI-P131],,M (medium inhibition (“M”=between 25 to 50% of the activity remaining)),7.8,H (high inhibition (“H”=less than 25% of the activity remaining))
Erbstatin analog,L (low inhibition (“L”=between 50–75% of the activity remaining)),L (low inhibition (“L”=between 50–75% of the activity remaining)),0.78,
